Reference: patent US20240343704A1, “HALO-SUBSTITUTED AMINO PYRIDINE COMPOUNDS AS INHIBITORS OF THE HAEMATOPOIETIC PROGENITOR KINASE 1 (HPK1)” (priority 2021, published 2024)

Molecular target: T1, Recombinant (1-346) HPK1 (h) (Homo sapiens, UniProt Q92918)
T1 construct: Recombinant (1-346) HPK1 (h) is incubated with 8 mM MOPS pH 7.0
T1 sequence (Q92918 1-346): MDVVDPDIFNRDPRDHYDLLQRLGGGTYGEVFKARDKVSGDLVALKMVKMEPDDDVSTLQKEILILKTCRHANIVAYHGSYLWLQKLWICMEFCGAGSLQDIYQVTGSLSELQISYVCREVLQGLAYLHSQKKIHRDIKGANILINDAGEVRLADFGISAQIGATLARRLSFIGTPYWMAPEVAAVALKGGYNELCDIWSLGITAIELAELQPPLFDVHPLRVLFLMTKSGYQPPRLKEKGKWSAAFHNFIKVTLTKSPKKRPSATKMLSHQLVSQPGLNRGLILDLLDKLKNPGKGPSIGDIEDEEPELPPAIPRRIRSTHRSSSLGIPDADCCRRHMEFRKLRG
Test: HPK1 Human STE Kinase Enzymatic Radiometric Assay
Format: biochemical
Details: read-out: HPK1 IC50 nM Range*
Description: A stock solution of 10 mM of test compound is prepared in DMSO. The compound plate was prepared by 3-fold and 9-point serial dilutions. […] The reaction is initiated by The addition of the Mg/ATP mix. After incubation for 40 minutes at RT, the reaction is stopped by the addition of phosphoric acid to a concentration of 0.5%.

Nc1nc(F)c(-c2ccc(N3CCCCC3)cc2)cc1-c1ccc2c(c1)CCNC2=O [I-60, 6-(2-amino-6-fluoro-5-(4-(piperidin-1-yl)phenyl)pyridin-3-yl)-3,4-dihydroisoquinolin-1(2H)-one] and CN1CC2(CCN(c3ccc(-c4cc(-c5ccc6c(c5)CCNC6=O)c(N)nc4F)cc3)CC2)C1 [I-430, 6-(2-amino-6-fluoro-5-(4-(2-methyl-2,7-diazaspiro[3.5]nonan-7-yl)phenyl)pyridin-3-yl)-3,4-dihydroisoquinolin-1(2H)-one] fall in the same range of IC50: 0.1 to 10 nM for the first, 0.1 to 10 nM for the second.

Nc1nc(F)c(-c2ccc(OC3CCNCC3)c(C(F)(F)F)c2)cc1-c1ccc2c(c1)CCNC2=O [I-190, 6-(2-amino-6-fluoro-5-(4-(piperidin-4-yloxy)-3-(trifluoromethyl)phenyl)pyridin-3-yl)-3,4-dihydroisoquinolin-1(2H)-one] and COc1ccc(-c2cc(-c3ccc4c(c3)CCNC4=O)c(N)nc2F)cc1CN(C)C [I-459, 6-(2-amino-5-(3-((dimethylamino)methyl)-4-methoxyphenyl)-6-fluoropyridin-3-yl)-3,4-dihydroisoquinolin-1(2H)-one] fall in the same range of IC50: 11 to 100 nM for the first, 11 to 100 nM for the second.

First: CC(=O)N1CCC(Oc2ccc(-c3cc(-c4cc5c(cc4F)C(=O)NCC5)c(N)nc3F)cc2C#N)CC1 [I-291, 2-((1-acetylpiperidin-4-yl)oxy)-5-(6-amino-2-fluoro-5-(7-fluoro-1-oxo-1,2,3,4-tetrahydroisoquinolin-6-yl)pyridin-3-yl)benzonitrile]
Second: CN1CCC[C@H]1c1cccc(-c2cc(-c3cc4c(cc3F)C(=O)NCC4)c(N)nc2F)c1 [I-444, (S)-6-(2-amino-6-fluoro-5-(3-(1-methylpyrrolidin-2-yl)phenyl)pyridin-3-yl)-7-fluoro-3,4-dihydroisoquinolin-1(2H)-one]
The IC50 of the first is lower: 0.1 to 10 nM for the first, 11 to 100 nM for the second. The first is the more potent here.

Nc1nc(F)c(-c2ccc(CN3CCOCC3)cc2)cc1-c1cc(F)c2c(c1)CCNC2=O [I-360, 6-(2-amino-6-fluoro-5-(4-(morpholinomethyl)phenyl)pyridin-3-yl)-8-fluoro-3,4-dihydroisoquinolin-1(2H)-one] and Nc1nc(F)c(-c2ccc(N3CCOCC3)c(F)c2)cc1-c1cc(F)c2c(c1)CCNC2=O [I-361, 6-(2-amino-6-fluoro-5-(3-fluoro-4-morpholinophenyl)pyridin-3-yl)-8-fluoro-3,4-dihydroisoquinolin-1(2H)-one] fall in the same range of IC50: 0.1 to 10 nM for the first, 0.1 to 10 nM for the second.

CC(C)N1CCN(c2ccc(-c3cc(-c4ccc5c(=O)[nH]c(C6CC6)nc5c4)c(N)nc3F)cc2)CC1 [I-412, 7-(2-amino-6-fluoro-5-(4-(4-isopropylpiperazin-1-yl)phenyl)pyridin-3-yl)-2-cyclopropylquinazolin-4(3H)-one] and CC(C)N1CCN(c2ccc(-c3cc(-c4ccc5c(=O)[nH]c(C6CCC6)nc5c4)c(N)nc3F)cc2)CC1 [I-413, 7-(2-amino-6-fluoro-5-(4-(4-isopropylpiperazin-1-yl)phenyl)pyridin-3-yl)-2-cyclobutylquinazolin-4(3H)-one] fall in the same range of IC50: 101 to 1000 nM for the first, 101 to 1000 nM for the second.

First: CC(C)N1CCN(c2ccc(-c3cc(-c4ccc5c(=O)[nH]c(Cl)nc5c4)c(N)nc3F)cc2)CC1 [I-418, 7-(2-amino-6-fluoro-5-(4-(4-isopropylpiperazin-1-yl)phenyl)pyridin-3-yl)-2-chloroquinazolin-4(3H)-one]
Second: CC(C)N1CCN(c2ccc(-c3cc(-c4ccc5c(=O)[nH]c(N)nc5c4)c(N)nc3F)cc2)CC1 [I-422, 2-amino-7-(2-amino-6-fluoro-5-(4-(4-isopropylpiperazin-1-yl)phenyl)pyridin-3-yl)quinazolin-4(3H)-one]
The IC50 of the first is higher: 101 to 1000 nM for the first, 0.1 to 10 nM for the second. The second is the more potent here.

COc1nc2cc(-c3cc(-c4ccc(N5CCN(C(C)C)CC5)cc4)c(F)nc3N)ccc2c(=O)[nH]1 [I-419, 7-(2-amino-6-fluoro-5-(4-(4-isopropylpiperazin-1-yl)phenyl)pyridin-3-yl)-2-methoxyquinazolin-4(3H)-one] and CNc1nc2cc(-c3cc(-c4ccc(N5CCN(C(C)C)CC5)cc4)c(F)nc3N)ccc2c(=O)[nH]1 [I-421, 7-(2-amino-6-fluoro-5-(4-(4-isopropylpiperazin-1-yl)phenyl)pyridin-3-yl)-2-(methylamino)quinazolin-4(3H)-one] fall in the same range of IC50: 11 to 100 nM for the first, 11 to 100 nM for the second.

First: CC(C)N1CCN(c2ccc(-c3cc(-c4ccc5c(=O)[nH]c(N(C)C)nc5c4)c(N)nc3F)cc2)CC1 [I-420, 7-(2-amino-6-fluoro-5-(4-(4-isopropylpiperazin-1-yl)phenyl)pyridin-3-yl)-2-(dimethylamino)quinazolin-4(3H)-one]
Second: CC(C)N1CCN(c2ccc(-c3cc(-c4ccc5c(c4)S(=O)(=O)CNC5=O)c(N)nc3F)cc2)CC1 [I-424, 7-(2-amino-6-fluoro-5-(4-(4-isopropylpiperazin-1-yl)phenyl)pyridin-3-yl)-2,3-dihydro-4H-benzo[e][1,3]thiazin-4-one 1,1-dioxide]
The IC50 of the first is higher: 101 to 1000 nM for the first, 11 to 100 nM for the second. The second is the more potent here.

First: CCN(C)Cc1cc(-c2cc(-c3ccc4c(c3)CCNC4=O)c(N)nc2F)ccc1C1CCOCC1 [I-428, 6-(2-amino-5-(3-((ethyl(methyl)amino)methyl)-4-(tetrahydro-2H-pyran-4-yl)phenyl)-6-fluoropyridin-3-yl)-3,4-dihydroisoquinolin-1(2H)-one]
Second: CN(C)Cc1cc(-c2cc(-c3ccc4c(c3)CCNC4=O)c(N)nc2F)ccc1N1CCN(C2CCC2)CC1 [I-461, 6-(2-amino-5-(4-(4-cyclobutylpiperazin-1-yl)-3-((dimethylamino)methyl)phenyl)-6-fluoropyridin-3-yl)-3,4-dihydroisoquinolin-1(2H)-one]
The IC50 of the first is higher: 11 to 100 nM for the first, 0.1 to 10 nM for the second. The second is the more potent here.

CN(C)Cc1cc(-c2cc(-c3cc4c(cc3F)C(=O)NCC4)c(N)nc2F)ccc1N1CCOCC1 [I-433, 6-(2-amino-5-(3-((dimethylamino)methyl)-4-morpholinophenyl)-6-fluoropyridin-3-yl)-7-fluoro-3,4-dihydroisoquinolin-1(2H)-one] and CN(C)Cc1cc(-c2cc(-c3cc4c(cc3F)C(=O)NCC4)c(N)nc2F)ccc1N1CCN(C2CCCC2)CC1 [I-452, 6-(2-amino-5-(4-(4-cyclopentylpiperazin-1-yl)-3-((dimethylamino)methyl)phenyl)-6-fluoropyridin-3-yl)-7-fluoro-3,4-dihydroisoquinolin-1(2H)-one] fall in the same range of IC50: 0.1 to 10 nM for the first, 0.1 to 10 nM for the second.

Compared with COc1cc2c(cc1-c1cc(-c3ccc4c(c3)CCNC4=O)c(N)nc1F)CN(C)CC2 [I-438, 6-(2-amino-6-fluoro-5-(6-methoxy-2-methyl-1,2,3,4-tetrahydroisoquinolin-7-yl)pyridin-3-yl)-3,4-dihydroisoquinolin-1(2H)-one], COCCN1CCc2c(C)cc(-c3cc(-c4ccc5c(c4)CCNC5=O)c(N)nc3F)cc2C1 [I-448, 6-(2-amino-6-fluoro-5-(2-(2-methoxyethyl)-5-methyl-1,2,3,4-tetrahydroisoquinolin-7-yl)pyridin-3-yl)-3,4-dihydroisoquinolin-1(2H)-one] is lower in IC50: 11 to 100 nM for the first, 0.1 to 10 nM for the second. The second is the more potent here.

CN(C)Cc1cc(-c2cc(-c3ccc4c(c3)CCNC4=O)c(N)nc2F)ccc1N1CCN(C(=O)OC(C)(C)C)CC1 [I-442, tert-butyl 4-(4-(6-amino-2-fluoro-5-(1-oxo-1,2,3,4-tetrahydroisoquinolin-6-yl)pyridin-3-yl)-2-((dimethylamino)methyl)phenyl)piperazine-1-carboxylate] and CN(C)Cc1cc(-c2cc(-c3cc4c(cc3F)C(=O)NCC4)c(N)nc2F)ccc1N1CCN(CCCC(F)F)CC1 [I-447, 6-(2-amino-5-(4-(4-(4,4-difluorobutyl)piperazin-1-yl)-3-((dimethylamino)methyl)phenyl)-6-fluoropyridin-3-yl)-7-fluoro-3,4-dihydroisoquinolin-1(2H)-one] fall in the same range of IC50: 0.1 to 10 nM for the first, 0.1 to 10 nM for the second.

Compared with CN1CCC[C@H]1c1cccc(-c2cc(-c3ccc4c(c3)CCNC4=O)c(N)nc2F)c1 [I-443, (S)-6-(2-amino-6-fluoro-5-(3-(1-methylpyrrolidin-2-yl)phenyl)pyridin-3-yl)-3,4-dihydroisoquinolin-1(2H)-one], CC(C)N1CCN(c2ccc(-c3cc(-c4ncc5c(n4)CCNC5=O)c(N)nc3F)cc2)CC1 [I-458, 2-(2-amino-6-fluoro-5-(4-(4-isopropylpiperazin-1-yl)phenyl)pyridin-3-yl)-7,8-dihydropyrido[4,3-d]pyrimidin-5(6H)-one] is lower in IC50: 101 to 1000 nM for the first, 0.1 to 10 nM for the second. The second is the more potent here.

First: COC1(C)NC(=O)c2ccc(-c3cc(-c4ccc(N5CCN(C(C)C)CC5)cc4)c(F)nc3N)cc2C1(F)F (centres unmarked) [I-450, 6-(2-amino-6-fluoro-5-(4-(4-isopropylpiperazin-1-yl)phenyl)pyridin-3-yl)-4,4-difluoro-3-methoxy-3-methyl-3,4-dihydroisoquinolin-1(2H)-one]
Second: Cc1[nH]c(=O)c2ccc(-c3cc(-c4ccc(N5CCN(CC6CC6)CC5)cc4)c(F)nc3N)cc2c1F [I-456, 6-(2-amino-5-(4-(4-(cyclopropylmethyl)piperazin-1-yl)phenyl)-6-fluoropyridin-3-yl)-4-fluoro-3-methylisoquinolin-1(2H)-one]
The IC50 of the first is higher: 11 to 100 nM for the first, 0.1 to 10 nM for the second. The second is the more potent here.

CN(C)Cc1cc(-c2cc(-c3ccc4c(=O)[nH]ccc4c3)c(N)nc2F)ccc1N1CCN(CCCC(F)F)CC1 [I-453, 6-(2-amino-5-(4-(4-(4,4-difluorobutyl)piperazin-1-yl)-3-((dimethylamino)methyl)phenyl)-6-fluoropyridin-3-yl)isoquinolin-1(2H)-one] showed an IC50 of 0.1 to 10 nM.
